Test results reported in patent publication US20060173080A1, “Methods of modulating TNF using bupropion” (The Regents of the University of California, priority 2002, published 2006).
“Also recorded” adds a separate entry of the source. Structures can show the parent of a compound that is named as a salt.

What was measured:
CD patients = assay: Case reports of Crohn's disease patients on bupropion (CDAI, symptoms, flares); type: in vivo, human
Excerpt: Also, multiple toxicity issues are associated with taking medicines such as azathioprine, methotrexate, and steroids over time (Sartor R B. New therapeutic approaches to Crohn;s disease. N Engl J Med 2000;342:1664-1666). In CD, TNF is increased, and TNF is thought to play a central role in CD pathogenesis (Papadakis K A, Targan S R. Role of cytokines in the pathogenesis of inflammatory bowel disease. Annu Rev Med 2000;51:289-298). Monoaminergic and dopaminergic treatments can lower levels of TNF-alpha via increased intracellular adenosine 3′,5′-cyclic monophosphate (cAMP).
person one presented in May of 1999 for treatment of an episode of major depression, superimposed on a chronic mild depressed state (dysthymia). […] They were not usually pain-free during the week, though usually did have several pain-free hours in a given day. […] Inadvertent loss of stool several times a month required daily use of adult protective pads. They were taking fluoxetine 40 mg every day for depression, and mesalamine 500 mg twice a day. CDAI was 202.
(§1) After careful review of treatment options, they were started on bupropion (fluoxetine was stopped) with up-titration to 150 mg twice a day. Their abdominal complaints eased over the next months, and the major depression remitted. The baseline dysthymia remained. To better treat the dysthymia, bupropion was raised to 150 mg three times daily with a further lowering of their CDAI. The mesalamine was tapered off. Their CDAI is currently approximately zero. They have one well-formed bowel movement daily and has been without abdominal symptoms or encopresis for 19 months now. They have had no CD flares since starting bupropion. Twice in the last year, they stopped bupropion on their own accord because they felt completely well and felt they didn't need bupropion anymore.
The above-described response to bupropion was consistent with other responses in CD patients. For example, a person with a 20-year history of Crohn's enteritis with multiple surgeries, including 4 small bowel resections. […] The patient was taking fluoxetine to help with pain control. […] Even though they were not able to stop smoking, the patient felt better on bupropion so they decided to continue this medicine with their family doctor's consent. Currently, the patient is taking bupropion 150 mg three times daily. […] Under their doctor's supervision, they have recently tapered their azathioprine from 100 to 50 mg every day without any increase in CDAI.

IL-10 = assay: Serum IL-10 by ELISA in LPS-challenged mice; type: in vivo, BALB/c mice; details: bupropion 100 mg/kg i.p. 1 h before 600 μg LPS i.p., serum 90 min after LPS, hydrochloride
Protocol: To study the immunomodulatory effects of bupropion we used a mouse model in which TNF production is induced by stimulation with lipopolysaccharide (LPS) (Bozza et al, The PACAP-type I receptor agonist maxadilan from sand fly saliva protects mice against lethal endotoxemia by a mechanism partially dependent on IL-10, Eur. J. Immunol. 28, 3120-3127, 1998). BALB/c mice were injected intraperitoneally (i.p.) with bupropion or placebo 1 h prior to i.p. injection of LPS (600 ug/mouse).
Male, 6 weeks old BALB/c mice were used in LPS-induced shock experiments. […]
TNF, IL-1beta, IFN-gamma and IL-10 concentrations in serum samples or in supernatants from macrophage cultures were determined by enzyme-linked immunosorbent assay (ELISA) using antibody pairs and recombinant cytokines from R&D systems (Minneapolis, Minn., USA), according to the manufacturer's instructions. After incubation with streptoavidin-peroxidase conjugate (Sigma), the reaction was developed using 3,3′, 5,5′-tetramethylbenzidine (TMB) peroxidase substrate and read at 450 nm. The serum concentration of nitrite (NO2−) was determined by the Griess reaction, as an indicator of nitric oxide production (Green et al., Analysis of nitrate nitrite and [^15N] nitrite in biological fluids. Anal. Biochem 126, 131-138, 1982). […] The absorbance of the reaction product at 540 nm was measured using an ELISA reader. […]

major depression = assay: Course of major depression in the case patients on bupropion; type: in vivo, human; details: case patients on bupropion 150 mg BID or TID; hydrochloride
Protocol: as §1, with “anymore. […] A person with NYSHA Class I CHF who started on bupropion for major depression. Their TNF before bupropion was 347 pg/ml and 5 pg/ml after two months on bupropion 150 mg twice a day (BID). […] In addition, a person with a history of two myocardial infarctions and NYSHA Class II CHF, who started on bupropion for major depression and desire to stop a 1.5 container/day chewing tobacco habit. Their TNF before starting bupropion was 433 pg/ml, and […] and then four weeks on bupropion 150 mg three times a day (TID). They subsequently stopped using tobacco and their depression is in remission.” for “anymore.”

## CC(NC(C)(C)C)C(=O)c1cccc(Cl)c1 (racemic) [bupropion, (.±.)-1-(3-chlorophenyl)-2-[(1,1-dimethylethyl)amino]-1-propanone hydrochloride]
CD patients; case patients, hydrochloride
  CD flares since starting bupropion: no CD flares; also recorded: no CD flares or associated surgeries
CD patients; person one on bupropion
  time without abdominal symptoms or encopresis: 19 months
CD patients; person one, colonic CD, bupropion 150 mg three times daily, CDAI 202 before bupropion
  CDAI: approximately zero
CD patients; person one, symptoms recurred on two self-chosen stops
  abdominal cramping and blood per rectum after restarting bupropion: remitted within weeks
CD patients; person, Crohn's enteritis, bupropion 150 mg three times daily, CDAI approximately 275 before
  CDAI: about 45
CD patients; person, bupropion 150 mg three times daily
  Crohn's symptoms: alleviated completely
CD patients; two CD cases, over 2 years
  side effects or toxicities: without significant side effects or toxicities
CD patients; two cases
  remission of CD: near complete and long-lasting (over 2 years) remissions
IL-10
  serum IL-10 level compared with placebo: significantly raised
IL-10; listed as Bupropion
  serum IL-10 level compared with placebo: significantly increased
Major depression
  depression outcome: partially controlled; also recorded: in remission; also recorded: remitted
